Patent publication US9980889B2, “Compositions comprising P-hydroxybenzylamine” (DSM IP ASSETS B.V., priority 2012, dated 2018)
Values after ≈ are worked out from the molar mass of the structure shown.

Columns and labels:
Experiment in all cases: MIC by agar dilution method according to DIN 58 940
C. albicans = format: cell-based; details: Candida albicans, ATCC10231; C. albicans ATCC 10231; Mueller-Hinton Agar, 36° C., read after 78 h
Description: (§1) The antimicrobial activity was assessed by determination of the Minimum Inhibitory Concentration (MIC) using the agar dilution method according to DIN 58 940 at the Labor L+SAG, D−Bad Bocklet-Grossenbrach.
(§2) Culture plates with a diameter of 5.5 cm were prepared with fresh, kept liquid (50° C.) Mueller-Hinton Agar (double concentrated, Merck 1.05437)/aqua purificata comprising p-Hydroxybenzylamine (pHBA) in the concentrations indicated in Table 1 according to standard methods. After solidifying and drying (about 1 h at 36° C.), the culture plates were inoculated with 1 μl of a suspension of the respective microorganism with the colony forming unit as outlined in table 1. The inoculated plates were then incubated at 36° C. The MIC's (i.e. the concentrations where still no growth could be observed) were determined after 18 h for E. coli, P. aeruginosa and S. aureus; after 48 h for P. acnes and after 78 h for A. brasiliensis and C. albicans. Per sample two culture plates were prepared. As control incubated and non-incubated cultures were used.
(§3) The suspensions of the microorganism's No. 1-4 were prepared by homogeneous suspension of 3-5 colonies of the same morphology in physiological NaCl-solution. The suspensions were adjusted such, that the haze corresponded to the Mac Farland standard 1.0 (about 3.0*10^8 KBE*/ml). For the preparation of the suspensions of the microorganisms 5 and 6, the microorganisms have been taken with a sterile swab and diluted in an amount of physiological NaCl solution such, that the haze corresponded to the Mac Farland standard 1.0. Afterwards the suspensions of the microorganisms 1 and 3-6 have been further diluted with physiological NaCl-solution in a ratio of 1:10. The colony count was determined using a spiral plater system (see table 2).

P. aeruginosa = format: cell-based; details: Pseudomonas aeruginosa, ATCC9027; P. aeruginosa ATCC 9027; Mueller-Hinton Agar, 36° C., read after 18 h
Description: as §1, §2, §3

S. aureus = format: cell-based; details: Staphylococcus aureus, ATCC6538; S. aureus ATCC 6538; Mueller-Hinton Agar, 36° C., read after 18 h
Description: as §1, §2, §3

A. brasiliensis = format: cell-based; details: Aspergillus brasiliensis, ATCC16404; A. brasiliensis ATCC 16404; Mueller-Hinton Agar, 36° C., read after 78 h
Description: as §1, §2, §3

E. coli = format: cell-based; details: Escherichia coli, ATCC8739; E. coli ATCC 8739; Mueller-Hinton Agar, 36° C., read after 18 h
Description: as §1, §2, §3

P. acnes = format: cell-based, Propionibacterium acnes; details: Cutibacterium acnes, ATCC11828; P. acnes ATCC 11828; Mueller-Hinton Agar, 36° C., read after 48 h
Description: as §1, §2
The suspensions of the microorganism's No. 1-4 were prepared by homogeneous suspension of 3-5 colonies of the same morphology in physiological NaCl-solution. The suspensions were adjusted such, that the haze corresponded to the Mac Farland standard 1.0 (about 3.0*10^8 KBE*/ml). […] The colony count was determined using a spiral plater system (see table 2).

## NCc1ccc(O)cc1 [pHBA, p-Hydroxybenzylamine]
C. albicans
  MIC: 5270 µg/mL (≈ 42.8 mM)
P. aeruginosa
  MIC: 5270 µg/mL (≈ 42.8 mM)
S. aureus
  MIC: 5270 µg/mL (≈ 42.8 mM)
A. brasiliensis
  MIC: 5270 µg/mL (≈ 42.8 mM)
E. coli
  MIC: 5270 µg/mL (≈ 42.8 mM)
P. acnes
  MIC: 7900 µg/mL (≈ 64.1 mM)
